# PubChem BioAssay (NCI)
#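 Grown in 96-well plates, cells were treated for 48 hours with each compound at five concentrations. Insufficient inhibition: endpoint recorded as highest concentration tested. GI50 is the concentration that inhibits growth by half. TGI: concentration producing complete growth inhibition.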
# Assays:
# Assay in all cases: DTP human tumour cell line panel, 48 h
# SN12C renal = test system: SN12C renal
# U251 CNS = test system: U251 CNS
# HOP-62 NSCLC = test system: HOP-62 NSCLC
# CCRF-CEM leukemia = test system: CCRF-CEM leukemia
# RPMI-8226 leukemia = test system: RPMI-8226 leukemia
# UACC-257 melanoma = test system: UACC-257 melanoma
# IGROV1 ovarian = test system: IGROV1 ovarian
# SK-OV-3 ovarian = test system: SK-OV-3 ovarian
# ACHN renal = test system: ACHN renal
# OVCAR-3 ovarian = test system: OVCAR-3 ovarian
SMILES,TGI (SN12C renal) [µM],TGI (U251 CNS) [µM],TGI (HOP-62 NSCLC) [µM],TGI (CCRF-CEM leukemia) [µM],TGI (RPMI-8226 leukemia) [µM],TGI (UACC-257 melanoma) [µM],TGI (IGROV1 ovarian) [µM],TGI (SK-OV-3 ovarian) [µM],TGI (ACHN renal) [µM],TGI (OVCAR-3 ovarian) [µM],GI50 (SN12C renal) [µM],GI50 (U251 CNS) [µM],GI50 (HOP-62 NSCLC) [µM],GI50 (CCRF-CEM leukemia) [µM],GI50 (RPMI-8226 leukemia) [µM],GI50 (UACC-257 melanoma) [µM],GI50 (IGROV1 ovarian) [µM],GI50 (SK-OV-3 ovarian) [µM],GI50 (ACHN renal) [µM],GI50 (OVCAR-3 ovarian) [µM]
O=c1c2cc([N+](=O)[O-])ccc2sc2ccsc12,> 100,> 100,> 100,> 100,> 100,> 100,> 100,> 100,> 100,> 100,,,,,,,,,,
Cc1ccc2c(c1)[n+]([O-])c(N)n[n+]2[O-],> 100,> 100,> 100,> 100,> 100,> 100,> 100,> 100,> 100,> 100,,,,,,,,,,
O=C1CCCCN1CCCCC#Cc1ccccc1C#Cc1ccc([N+](=O)[O-])cc1,37.3,14.4,22.5,18.2,3.39,8.24,37.5,6.47,11.3,23.6,17.1,3.79,8.01,2.87,0.408,2.89,8.21,1.57,3.44,10.9
NC(=O)c1ccc(I)c(N)c1,> 100,> 100,> 100,> 100,> 100,> 100,> 100,> 100,> 100,> 100,> 100,> 100,> 100,> 100,> 100,> 100,> 100,> 100,> 100,> 100
OCC(O)CC[CH2][Sn]([Br])([c]1ccccc1)[c]1ccccc1 (configuration not stated),> 100,> 100,> 100,> 100,> 100,> 100,> 100,> 100,> 100,> 100,> 100,> 100,> 100,> 100,> 100,> 100,> 100,> 100,> 100,> 100
O=C(N/N=C/c1ccccc1O)c1ccccc1Nc1ccnc(C(F)(F)F)c1,72.6,> 100,13.4,,1.64,,0.0883,38,> 63.5,22.6,0.974,0.442,0.41,0.123,0.189,0.396,0.0154,0.649,0.342,0.45
O=C1/C(=C/c2ccccc2)CNC/C1=C\c1ccccc1,3.28,1.37,7.46,> 25.5,0.787,10.6,3.63,6.36,4.37,3.09,,,,,,,,,,
C=CC(=O)N1CC2(CCN(c3nc(OC4CCN(CCCOC)CC4)nc4c(OCC(F)(F)F)c(-c5c(C)ccc6[nH]ncc56)c(C5CC5)cc34)CC2)C1,5.86,10,19.6,8.09,5.81,12.4,21.3,23.8,4.44,5.28,2.36,2.81,,2.46,2.14,3.03,6.88,8.57,2.11,2.37
Oc1ccc(NCc2nc3ccccc3[nH]2)cc1,> 100,> 100,62.2,> 100,> 100,> 100,> 100,> 100,> 100,> 100,61.4,28.2,22.4,> 100,72.8,88,76.4,32.1,> 100,33.8
N#Cc1cc([N+](=O)[O-])ccc1NC(=O)C(=O)Nc1n[nH]c(N)n1,> 100,> 100,> 100,> 100,> 100,> 100,> 100,> 100,> 100,> 100,,,,,,,,,,
COc1ccc(/C=C/c2nccc3ccccc23)cc1OC,> 10,> 10,> 10,> 10,> 10,> 10,> 10,> 10,> 10,> 10,,,,,,,,,,
CC(C)(C)C1C=C(Sc2ccccc2)C(=O)O1 (configuration not stated),> 100,> 100,> 100,> 100,> 100,> 100,> 100,> 100,> 100,> 100,,,,,,,,,,
O=C1CCC2(c3ccc(F)cc3)Nc3cc(Cl)ccc3N12 (configuration not stated),> 100,> 100,> 100,> 100,> 100,> 100,> 100,> 100,> 100,> 100,,,,,,,,,,
O=C1c2cc(Cl)ccc2S(=O)(=O)c2c(NCCCNCCO)nc3ccccc3c21,2.51,3.18,16.7,2.74,3.28,3.42,9.56,20.9,1.63,1.66,1.25,1.62,4.54,0.648,0.888,1.55,2.88,8.54,0.493,0.478
CC(C)C(=O)NC(=S)Nc1ccc([N+](=O)[O-])cc1C#N,> 100,> 100,> 100,> 100,> 100,> 100,> 100,> 100,> 100,> 100,,,,,,,,,,
CCOC(=O)C1=C(OC(OCC)C(CC)[Se]c2ccccc2)CCCC1 (configuration not stated),34.1,31,> 100,38.7,39.3,> 100,> 100,> 100,82.2,65.7,,,,,,,,,,
